Test results from paper PMC9344964 (Journal of Enzyme Inhibition and Medicinal Chemistry, 2022).
Converted amounts (≈) assume the structure as drawn. Where two headings read alike, the source gives them in different places.

Tests used:
MTT cytotoxicity assay = format: cell-based; conditions: African green monkey, Vero E6 cells, read-out: cytotoxic concentration 50 (CC50)
Method: It was performed to calculate the newly synthesised candidates’ minimum concentrations that cause 50% toxicity to the cells (CC50). First, the newly synthesised derivatives were dissolved in ddH2O with 10% DMSO and then diluted with Dulbecco's Modified Eagle's Medium (DMEM) to the desired concentrations. The MTT assay method was performed with minor changes using VERO-E6 cells (ready for the virus propagation) to be applied in other experiments. The complete methodology was elucidated in the Supplementary Data (SI2).
(§1) SI 2. MTT cytotoxicity assay.
(§2) The VERO-E6 cells were kept in 96 well-plates at 37°C in 5% CO2 for 24 h to be cultivated. The tested compounds were diluted with DMEM in HA plate in triplicates as mentioned before and then poured onto the prepared cells after washing twice by sterile 1x phosphate buffer saline (PBS). 24 h later, the cell monolayers were washed three times with sterile 1x PBS after removal of the supernatant followed by the addition of the MTT solution into each individual well (20 µl of 5 mg/ml stock solution) which was kept at 37°C for 4 h. The formed formazan crystals were dissolved using an acidified isopropanol (200 µl) and the absorbance of their solutions were recorded through a multi-well plate reader (λmax = 540 nm) against a reference wavelength (λmax= 620 nm). Finally, the cytotoxicity % of the tested compounds compared to the control cells (untreated cells) was calculated as follow:
(§3) % Cytotoxicity = (the absorbance of untreated cells − absorbance of treated cells) X 100 […]
(§4) SI 3. Inhibitory concentration 50 (IC50) determination.
(§5) The Vero-E6 cells (2.4×104) were kept overnight at 37°C in 5% CO2 inside 96-well tissue culture plates. 1x PBS solution was used to wash the cell monolayers for only one time which were then treated with different serial dilutions of the examined compounds together with a fixed dilution from the virus (hCoV-19/Egypt/NRC-03/2020 (Accession Number on GSAID: EPI_ISL_430820)) following TCID50 test and kept at RT for 1 h before starting incubation. Also, the cell monolayers were subjected to DMEM (100 μl) with different concentrations of the test samples and virus and left at 37°C for 72 h in a 5% CO2. Then, 4% paraformaldehyde (100 μl) was used for cell fixation (2 h) followed by the staining step with 0.1% crystal violet in distilled H2O (50 μl) at RT for 15 min. Absolute CH3OH (100 μl) was added to dissolve the crystal violet dye per well to measure the optical density of the produced color using Anthos Zenyth 200rt plate reader at 570 nm.1 The IC50 value for each tested compound which is corresponding to its minimum concentration required to reduce the virus infectivity by 50% in comparison to the virus control was calculated.

[1] = tested on: SARS-CoV-2 [hCoV-19/Egypt/NRC-03/2020]; experiment: SARS-CoV-2 inhibitory assay (IC50 determination, crystal violet) in Vero E6 cells; format: cell-based
Method: The IC50 for each examined compound (3a–g) which is equivalent to the minimum concentration to inhibit the virus infectivity by 50% compared to the virus control was calculated. The full methodology was depicted in the Supplementary Data (SI3).
as §1, §2, §3, §4, §5

SARS-CoV-2 Mpro = SARS-CoV-2 Mpro (Severe acute respiratory syndrome coronavirus 2, UniProt P0DTD1); experiment: SARS-CoV-2 Mpro assay (3CL Protease Assay Kit); format: biochemical
From the text: The Mpro activity was investigated using the 3CL Protease Assay Kit. The applied protocol and methodology were depicted in the Supplementary Data (SI4). Herein, the present assay was established to assess the newly synthesised candidates (3a–g) inhibitory effects on the SARS-CoV-2 Mpro enzyme as a recommended mechanism of action.
SI 4. Methodology and protocol of 3CL Protease (SARS-CoV-2) assay.
The 3CL Protease Assay Kit is designed to measure 3CL Protease activity for screening and profiling applications, in a homogeneous assay with no time-consuming washing steps. The kit comes in a convenient 96-well format, with purified 3CL Protease, fluorogenic substrate, and 3CL Protease assay buffer for 100 enzyme reactions. 3CL inhibitor GC376 is also included as a positive control.
Add 0.5 M DTT to 3CL Protease Assay Buffer so final DTT concentration is 1 mM. For example, add 10 μl of 0.5 M DTT to 5 ml assay buffer. (DTT should be added just before use. Prepare only enough DTT-containing buffer as required for the assay. Store the remaining assay buffer at - […]
2) Thaw 3CL Protease on ice. Upon first thaw, briefly spin tube containing enzyme to recover the full content of the tube. Aliquot 3CL Protease into single use aliquots. Store remaining undiluted enzyme in aliquots at -80°C. Note: 3CL Protease enzyme is sensitive to freeze/thaw cycles.
3) Dilute 3CL Protease in Assay buffer (with 1 mM DTT) at 3-5 ng/μl (90-150 ng per reaction).
4) Add 30 μl diluted 3CL Protease enzyme solution to wells designated as “Positive Control”, “Inhibitor Control” and “Test Sample”. Add 30 μl Assay buffer (with 1 mM DTT) to the “Blank” wells.
Component Positive Test Sample Inhibitor Blank
Assay Buffer (with DTT) − − − 30 μl […]
Inhibitor Buffer (no inhibitor) 10 μl − − 10 μl […]
5) Dilute 50 μg GC376 in 200 μl water to obtain a 500 μM solution. Aliquot and store remaining solution in aliquots at -80°C. Add 10 μl GC376 (500 μM) to the wells labeled “Inhibitor Control”.
6) Prepare the inhibitor solution.
The final concentration of DMSO in the assay should not exceed 1%. If the inhibitor compound is dissolved in DMSO, make a 100-fold higher concentration of the compound than the highest […]
concentration you want to test in DMSO. Then make a 20-fold dilution in 1X assay buffer (at this step the compound concentration is 5-fold higher than the final concentration).
If the inhibitor compound is dissolved in water, make a solution of the compound 5-fold higher than the final concentration in 3CL Protease assay buffer (with 1 mM DTT). For example, diluting 50 μg GC376 in 200 μl water (step 5) creates a 500 μM solution. Adding 10 ul to the assay (final volume 50 μl) results in a 100 μM final concentration.
7) Add 10 μl inhibitor to each well designated “Test Sample”. Add 10 μl 1X assay buffer or 5% DMSO (depending on which inhibitor solution is used) to “Blank” and “Positive Control” wells.
8) Preincubate enzyme with the inhibitor for 30 min at room temperature with slow shaking.
9) Dilute 5 mM 3CL Protease substrate 1:20 in assay buffer with DTT, to make a 250 μM solution.
Dilute only enough as is required for the assay.
10) Start reaction by adding 10 μl of the substrate solution to each well (Final concentration of the 3CL Protease substrate in a 50 μl reaction is 50 μM).
11) Incubate at room temperature for overnight. Seal the plate with the plate sealer. Measure the fluorescence intensity in a microtiter plate-reading fluorimeter capable of excitation at a wavelength 360 nm and detection of emission at a wavelength 460 nm. The fluorescence intensity can also be measured kinetically. “Blank” value is subtracted from all other values.
SI 5. Molecular dynamics (MD) simulations.
The MD simulations were carried out using Desmond simulation package of Schrödinger LLC.2 The NPT ensemble with the temperature 300 K and a pressure 1 bar was applied in all runs. The simulation length was 100 ns with a relaxation time 1 ps for the ligands. […]

[2] = parameters: method as in PMID 34641339; conditions: single-dose administration; cited from earlier work
SARS-CoV-2 = tested on: SARS-CoV-2; parameters: method as in PMID 33352056; conditions: in vitro assessment; read-out: EC50 against SARS-CoV-2; cited from earlier work
[3] = Severe acute respiratory syndrome coronavirus 2, Vero C1008, read-out: IC50 (anti-SARS-CoV-2 activity)
[4] = Severe acute respiratory syndrome coronavirus 2, Vero C1008, Vero E6 cells, hCoV-19/Egypt/NRC-03/2020, read-out: IC50 (anti-SARS-CoV-2 activity)
[5] = 3CL Protease Assay Kit, read-out: SARS-CoV-2 Mpro IC50 (converted)
[6] = values used for multiple linear regression, read-out: IC50 (Table 4, regression model; SARS-CoV-2 Mpro values) (converted)

Question: With `Cc1ccc(C(=O)Nc2ncc([N+](=O)[O-])s2)cc1` [Compound 3a, 4-Methyl-N-(5-nitrothiazol-2-yl)benzamide] as the compound, how does the CC50 at 24 h (MTT cytotoxicity assay) read?
Answer: 1470 mg/L (≈ 5.57 mM)

Question: What about the IC50 [1, 3] of the same compound?
Answer: 5230 µM

Question: What about the IC50 [1, 4] of the same compound?
Answer: 1380 mg/L

Question: What about the IC50 (SARS-CoV-2 Mpro; [5]) of the same compound?
Answer: 17.7 µM

Question: Which CC50 at 24 h (MTT cytotoxicity assay) does the source give for `O=C(CNC(=O)OCc1ccccc1)Nc1ncc([N+](=O)[O-])s1` [Compound 3b, Benzyl (2-((5-nitrothiazol-2-yl)amino)-2-oxoethyl)carbamate] here?
Answer: 1850 mg/L (≈ 5.51 mM)

Question: And the IC50 [1, 3]?
Answer: 519 µM

Question: What about the IC50 [1, 4] of the same compound?
Answer: 175 mg/L

Question: What about the “selectivity index (SI = CC50/IC50)” value ([1]; Vero E6 cells) of the same compound?
Answer: 10

Question: What about the IC50 (SARS-CoV-2 Mpro; [5]) of the same compound?
Answer: 15.2 µM

Question: With `C[C@H](NC(=O)OCc1ccccc1)C(=O)Nc1ncc([N+](=O)[O-])s1` [Compound 3c, Benzyl (S)-(1-((5-nitrothiazol-2-yl)amino)-1-oxopropan-2-yl)carbamate] as the compound, how does the CC50 at 24 h (MTT cytotoxicity assay) read?
Answer: 2120 mg/L (≈ 6.05 mM)

Question: What about the IC50 [1, 3] of the same compound?
Answer: 1990 µM

Question: What about the IC50 [1, 4] of the same compound?
Answer: 698 mg/L

Question: What about the “selectivity index (SI = CC50/IC50)” value ([1]; Vero E6 cells) of the same compound?
Answer: 3

Question: What about the IC50 (SARS-CoV-2 Mpro; [6]) of the same compound?
Answer: 34 µM

Question: For `CC(C)[C@H](NC(=O)OCc1ccccc1)C(=O)Nc1ncc([N+](=O)[O-])s1` [Compound 3d, Benzyl (S)-(3-methyl-1-((5-nitrothiazol-2-yl)amino)-1-oxobutan-2-yl)carbamate], which CC50 at 24 h (MTT cytotoxicity assay) is on record?
Answer: 1200 mg/L (≈ 3.18 mM)

Question: What about the IC50 [1, 3] of the same compound?
Answer: > 1200 mg/L

Question: What about the IC50 (SARS-CoV-2 Mpro; [6]) of the same compound?
Answer: 235 µM

Question: Which results are given for `O=C(N[C@@H](Cc1ccccc1)C(=O)Nc1ncc([N+](=O)[O-])s1)OCc1ccccc1` [Compound 3e, Benzyl (S)-(1-((5-nitrothiazol-2-yl)amino)-1-oxo-3-phenylpropan-2-yl)carbamate]?
Answer: CC50 at 24 h (MTT cytotoxicity assay): 2040 mg/L (≈ 4.78 mM); IC50 [1, 3]: 3010 µM; IC50 [1, 4]: 1280 mg/L; IC50 (SARS-CoV-2 Mpro; [6]): 38.9 µM

Question: For `O=C(Nc1ncc([N+](=O)[O-])s1)[C@@H]1CCCN1C(=O)OCc1ccccc1` [Compound 3f, Benzyl (S)-2-((5-nitrothiazol-2-yl)carbamoyl)pyrrolidine-1-carboxylate], which CC50 at 24 h (MTT cytotoxicity assay) is on record?
Answer: 2800 mg/L (≈ 7.44 mM)

Question: And the IC50 [1, 3]?
Answer: 3330 µM

Question: And the IC50 [1, 4]?
Answer: 1250 mg/L

Question: What about the IC50 (SARS-CoV-2 Mpro; [6]) of the same compound?
Answer: 59.4 µM

Question: Which CC50 at 24 h (MTT cytotoxicity assay) does the source give for `O=C(N[C@@H](Cc1c[nH]c2ccccc12)C(=O)Nc1ncc([N+](=O)[O-])s1)OCc1ccccc1` [Compound 3g, Benzyl (S)-(3-(1H-indol-3-yl)-1-((5-nitrothiazol-2-yl)amino)-1-oxopropan-2-yl)carbamate] here?
Answer: 1630 mg/L (≈ 3.49 mM)

Question: And the IC50 [1, 3]?
Answer: > 1630 mg/L

Question: And the IC50 (SARS-CoV-2 Mpro; [6])?
Answer: 110 µM

Question: Which “biological t1/2” value [2] does the source give for `CC(C)C(=O)OC[C@H]1O[C@@H](n2ccc(NO)nc2=O)[C@H](O)[C@@H]1O` [molnupiravir] here?
Answer: 7 h

Question: And the “mean Cmax” value [2]?
Answer: 0.0132 µg/mL

Question: For `CC(=O)Oc1ccccc1C(=O)Nc1ncc([N+](=O)[O-])s1` [nitazoxanide], which EC50 (SARS-CoV-2) is on record?
Answer: 2.12 µM
